This note sets out measurements from patent US20090172831A1, “Methods for the production of plants resistant to HPPD herbicides” (Syngenta Limited, priority 2000, published 2009).

Assay [1] has as its target T1, Arabidopsis HPPD (Arabidopsis thaliana, UniProt P93836).
T1 construct: made in house; host or cells: E. coli BL21 (DE3) codon+ RP
T1 sequence (P93836 1-445): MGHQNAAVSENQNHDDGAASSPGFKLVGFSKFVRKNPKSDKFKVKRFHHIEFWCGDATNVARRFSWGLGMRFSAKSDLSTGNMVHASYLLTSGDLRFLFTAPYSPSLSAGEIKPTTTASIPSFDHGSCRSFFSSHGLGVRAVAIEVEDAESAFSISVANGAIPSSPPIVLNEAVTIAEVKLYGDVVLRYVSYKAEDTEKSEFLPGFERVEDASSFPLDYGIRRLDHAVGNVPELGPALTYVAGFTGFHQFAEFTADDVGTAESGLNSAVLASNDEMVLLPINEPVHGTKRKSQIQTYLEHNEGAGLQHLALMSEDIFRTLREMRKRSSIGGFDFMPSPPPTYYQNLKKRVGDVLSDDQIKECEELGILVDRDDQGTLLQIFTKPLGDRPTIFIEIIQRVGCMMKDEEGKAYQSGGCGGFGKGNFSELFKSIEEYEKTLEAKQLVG
As to the kind of experiment: Dissociation of enzyme/inhibitor complexes by exchange with 14C-labelled inhibitor (koff; Kd = koff/kon). In kind it is binding. The note with it: for koff: − glycerol. The procedure:
It will be appreciated that many suitable methods known in the art for determining such low koff values are suitable for working the current invention. These include measuring rates of exchange of radio or otherwise labelled inhibitors either with or away from the enzyme inhibitor complex. For example enzyme inhibitor complexes can readily be prepared by incubating HPPD preparations with labelled or unlabelled inhibitor and then, after suitable periods, optionally rapidly separating the thus formed enzyme inhibitor complex from excess inhibitor by any suitable method such as ultrafiltration, binding to filters or exchange down a gel filtration column. Exchange reactions with the, thus prepared enzyme inhibitor complex is then initiated by addition of, as appropriate, excess labelled or unlabelled inhibitor. […] Many methods such as radiometric, fluorimetric, NMR, fluorescence depolarisation, EPR, Mossbauer, UV/VIS spectrophotometry etc. or phonon resonance can, in principle, be used to monitor the enzyme/ligand exchange reactions and, particularly in this case where the enzyme contains an iron atom at the ligand binding site. Optionally, the monitoring method may be continuous (as, for example, with scintillation proximity/bead-based methods) or, discontinuous, based upon collection of data at various timepoints wherein samples are removed and the bound and unbound label components rapidly separated and quantitated.
(§1) Values of koff can suitably be calculated by computer fitting based upon is numerical integration of the exchange data along with information on the active-site concentration of HPPD and upon kon values obtained as described below. […] In any event, koff values are always here calculated from the rate of the major slow exchange reaction.
^14C mesotrione is of specific activity 1.12 GBq/mmol. […] Following this initial binding reaction, exchange reactions are initiated by addition of cold mesotrione to a final concentration of 60 μM and 200 μl aliquots removed at various times to rapid chromatography down a NAP5 gel filtration column equilibrated in 50 mM BTP at pH 7 containing 0.1 M KCl, separation into fractions containing protein-bound or free radiolabel and liquid scintillation counting.
Nevertheless, here, for practical purposes, koff values are always here calculated from the rate of the major slow exchange reaction.
Not all test inhibitors are readily available in a radiolabelled form.

For assay [2], the target named is Wheat HPPD (Triticum aestivum, UniProt A0A3B6NLC6). The description is as above. The assay is classed as binding. The conditions noted are these: for koff: − glycerol.
Sequence of Wheat HPPD (A0A3B6NLC6 entry or part of it): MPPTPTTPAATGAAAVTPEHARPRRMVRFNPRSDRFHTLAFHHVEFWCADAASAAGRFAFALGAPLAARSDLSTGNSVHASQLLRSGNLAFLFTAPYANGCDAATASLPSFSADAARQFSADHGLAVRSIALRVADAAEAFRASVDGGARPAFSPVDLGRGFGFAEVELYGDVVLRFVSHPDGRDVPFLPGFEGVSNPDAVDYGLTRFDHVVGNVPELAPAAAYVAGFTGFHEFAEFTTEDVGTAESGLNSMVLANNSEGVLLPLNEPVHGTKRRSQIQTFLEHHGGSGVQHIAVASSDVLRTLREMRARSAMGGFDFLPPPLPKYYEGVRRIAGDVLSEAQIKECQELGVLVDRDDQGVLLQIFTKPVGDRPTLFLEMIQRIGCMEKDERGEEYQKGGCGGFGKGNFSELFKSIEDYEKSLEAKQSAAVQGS
Excerpt: (§2) Herbicidal inhibitors of HPPD are found here to have generally low values of koff (in the range less than 0.0003 s^−1, often less than 0.000001 s^−1). It will be appreciated that many suitable methods known in the art for determining such low koff values are suitable for working the current invention. These include measuring rates of exchange of radio or otherwise labelled inhibitors either with or away from the enzyme inhibitor complex. For example enzyme inhibitor complexes can readily be prepared by incubating HPPD preparations with labelled or unlabelled inhibitor and then, after suitable periods, optionally rapidly separating the thus formed enzyme inhibitor complex from excess inhibitor by any suitable method such as ultrafiltration, binding to filters or exchange down a gel filtration column. Exchange reactions with the, thus prepared enzyme inhibitor complex is then initiated by addition of, as appropriate, excess labelled or unlabelled inhibitor. HPPD preparations suitable for use in the methods of the current invention are relatively unpurified, buffer-exchanged, supernatant fractions of spun crude lysates of E. coli strains engineered to express the HPPD enzyme of interest at a level of, typically, about 0.25-10% of the total soluble protein. Many methods such as radiometric, fluorimetric, NMR, fluorescence depolarisation, EPR, Mossbauer, UV/VIS spectrophotometry etc. or phonon resonance can, in principle, be used to monitor the enzyme/ligand exchange reactions and, particularly in this case where the enzyme contains an iron atom at the ligand binding site. Optionally, the monitoring method may be continuous (as, for example, with scintillation proximity/bead-based methods) or, discontinuous, based upon collection of data at various timepoints wherein samples are removed and the bound and unbound label components rapidly separated and quantitated.
as §1, with “reaction. It will be appreciated that within the scope of the current invention many methods of making the desired kinetic comparisons are possible without explicit or rigorous determination of off rates but, based upon the same underlying principle, will achieve the same selection result.” for “reaction.”
The dissociation rates (off rates) of inhibitors selected from Formula 1 and/or 2 and/or 3 and/or 4 from the complexes that they form with test and control HPPD enzymes are suitably measured in a number of ways. Thus, for example, the rates of dissociation of mesotrione, a compound selected from Formula 1 and of the diketonitrile of isoxaflutole, a compound selected from Formula 3 from their respective complexes with, test, wheat HPPD and with, control, Arabidopsis HPPD are compared. The method and results from a typical test are as follows.
^14C mesotrione is of specific activity 1.12 GBq/mmol. This is ˜95% pure radiochemically by TLC and based upon the proportion of material tight-binding to HPPD. Arabidopsis and, (test), wheat HPPD are each diluted to a concentration of ˜0.45 and 0.54 μM, respectively into 1.6 ml of 50 mM Bis-Tris propane buffer at pH 7.0 containing 25% glycerol, 25 mM sodium ascorbate and 3 mg/l of bovine catalase (Sigma C3155˜50,000 units/mg) containing […] ^14C mesotrione and left to react at 25 C for 2.5-3 h. Following this initial binding reaction, exchange reactions are initiated by addition of cold mesotrione to a final concentration of 60 μM and 200 μl aliquots removed at various times to rapid chromatography down a NAP5 gel filtration column equilibrated in 50 mM BTP at pH 7 containing 0.1 M KCl, separation into fractions containing protein-bound or free radiolabel and liquid scintillation counting. […]

In assay [3] the target is P. fluorescens HPPD (Pseudomonas fluorescens, UniProt A0ACG8AE61). The assay is described as above. In kind it is binding.
Sequence of P. fluorescens HPPD (A0ACG8AE61 entry or part of it): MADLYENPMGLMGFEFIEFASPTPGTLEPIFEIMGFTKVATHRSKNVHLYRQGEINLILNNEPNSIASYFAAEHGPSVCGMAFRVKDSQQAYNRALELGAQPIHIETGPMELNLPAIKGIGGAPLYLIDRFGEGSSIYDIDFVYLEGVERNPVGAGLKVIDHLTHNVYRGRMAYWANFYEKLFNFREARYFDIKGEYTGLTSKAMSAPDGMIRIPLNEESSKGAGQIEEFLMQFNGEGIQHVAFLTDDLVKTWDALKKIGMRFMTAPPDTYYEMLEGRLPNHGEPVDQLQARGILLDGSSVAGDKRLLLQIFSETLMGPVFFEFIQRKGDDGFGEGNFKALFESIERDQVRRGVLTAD
Excerpt: as §2
as §1, with “reaction. It will be appreciated that within the scope of the current invention many methods of making the desired kinetic comparisons are possible without explicit or rigorous determination of off rates but, based upon the same underlying principle, will achieve the same selection result. […]” for “reaction.”
Not all test inhibitors are readily available in a radiolabelled form. A more general method of measuring off rates is to first form the complex with unlabelled test inhibitor, to rapidly exchange the complex free of excess unlabelled inhibitor and to then start the exchange reaction by addition of an excess of a standard labelled inhibitor, the kinetic properties of which are already known. The reaction is then monitored and the relative proportions of bound and unbound label determined at various times. […] The latter is the method of choice when the rate of exchange is fast (t½<3 h).
In, variants of the above methods, off rates are measured either in the presence or absence of ˜25% v/v glycerol. In the presence of glycerol values obtained are generally ˜1.5-3× slower than in its absence although sometimes the change is outside this range or, even, in the other direction. Further examples of data obtained are depicted in the following Table 3.
Crude Extracts of recombinant E. coli strains expressing, in the one case, a control HPPD (from Arabidopsis) and, in the other, one or more test HPPD sequences are prepared as described in the preceding example. The titre of active sites and enzyme activity are also defined and measured as described in the preceding examples. […]

Assay [4] addresses T1, Arabidopsis HPPD. In words: Inhibition of HPPD (E. coli extract) after pre-incubation with inhibitor. The assay is classed as biochemical. The conditions noted are these: read-out: inhibition (relative to controls). The procedure:
(§3) Qualitative measurements of the differences in Kd values in respect of different HPPD inhibitors are obtained by pre-incubating enzyme with inhibitor and, then, subsequently, measuring the % inhibition. For example HPPD is isolated from maize seedlings, part purified and assayed by similar methods to those described by Schulz et al 1993 (FEBS LETS. 318, 162-166) and by Secor (1994) in Plant Physiol. 106, 1429-1433. Assays are run for 30 minutes and started with addition of radiolabelled hydroxyphenylpyruvate (final concentration ˜0.1-0.2 mM) following a 20-30 min period over which inhibitor is pre-incubated with the part-purified enzyme.
Using the same assay method but using HPPD from Arabidopis (obtained from E. coli cells transformed to express the Arabidopsis HPPD and prepared as an E. coli extract similar to the methods described by Garcia et al in Plant Physiol (1999) 119, 1507-1516) the following levels of inhibition (relative to controls) are observed with the following doses of herbicide versus Arabidopsis HPPD.

Assay [5] has as its system maize HPPD. In words: Inhibition of part purified HPPD after pre-incubation with inhibitor. The assay is classed as biochemical. The protocol:
as §3
The following levels of inhibition (relative to controls) are observed with the following doses of herbicide versus maize HPPD

The mark [6] stands for this setting: value obtained + glycerol (in parentheses), read-out: Kd.
[7] abbreviates: without glycerol, Kd = koff/kon, read-out: Kd.
[8] abbreviates: Kd, without glycerol, Kd = koff/kon.

Like-named read-outs stand apart in the source and are kept apart here.

Consider `CCOCc1nc(C(F)(F)F)ccc1C(=O)C1C(=O)C2CCC(C2)C1=O` (stereo not shown) [Structure III, 3-[[2-(ethoxymethyl)-6-(trifluoromethyl)-3-pyridinyl]carbonyl]-bicyclo[3.2.1]-octane-2,4-dione], for which the koff in assay [1] was 1.1e-05 s⁻¹; in assay [2] (read-out: koff), over 0.0002 s⁻¹.
Regarding `CS(=O)(=O)c1cc(C(F)(F)F)ccc1C(=O)C(C#N)C(=O)C1CC1` (stereo not shown) [Structure IV, 1-[2-(methanesulfonyl)-4-(trifluoromethyl)phenyl]-3-cyclopropyl-2-cyano-propane-1,3-dione, reference compound], the Kd amounted to 12200 pM in assay [3] (in water at pH 7.0 and at 25 C, read-out: dissociation constant (Kd)); 1100 pM in assay [3] (setting [6]); 12200 pM in assay [3] (setting [7]); 596 pM in assay [2] (setting [6]); 885 pM in assay [2] (setting [7]). In assay [4] (1 nM), the inhibition at 0.001 µM was 20%. Also, the inhibition at 0.01 µM in assay [4] (10 nM) is 90%. For the same compound, the inhibition at 0.1 µM in assay [4] (100 nM) stood at 95%. In addition, the inhibition at 1 µM in assay [4] (1000 nM) was 95%.
With `Cc1cc(C#N)ccc1C(=O)C1C(=O)C(C)(C)C(=O)C(C)(C)C1=O` [Structure VI, 2-[2-methyl-4-cyanobenzoyl]-4,4,6,6-tetramethylcyclohexane-1,3,5-trione], the Kd in assay [1] was 25 pM; in assay [3] (setting [7]), over 20000 pM; in assay [2] (setting [8]) it was 450 pM.
Regarding `Cc1nc(C(F)(F)F)ccc1C(=O)C1C(=O)C(C)(C)C(=O)C(C)(C)C1=O` [Structure VII, 3-[[2-methyl-6-(trifluoromethyl)-3-pyridinyl]carbonyl]-4,4,6,6-tetramethylcyclohexane-1,3,5-trione], the Kd was determined as 32 pM in assay [1] and 175 pM in assay [2] (setting [8]). Also, the koff in assay [1] is 1e-06 s⁻¹; in assay [3] (− glycerol), over 0.0003 s⁻¹; in assay [2], 8.3e-06 s⁻¹.
Consider `CCC1CC(=O)C(C(=O)C2CC2)C(=O)C1(C)S(C)(=O)=O` (stereo not shown) [Structure VIII, 2-[cyclopropylcarbonyl]-5-ethyl-4-methanesulfonyl-4-methylcyclohexane-1,3-dione], for which the “strength of inhibition” value in assay [1] (used for pre-incubation in control experiments) is “weak inhibitor”.
Regarding `CS(=O)(=O)c1ccc(C(=O)C2C(=O)CCCC2=O)c(Cl)c1` [sulcotrione, 2-(2-Chloro-4-methanesulphonylbenzoyl)-cyclohexane-1,3-dione], in assay [4], the inhibition at 0.001 µM worked out at 57%, the inhibition at 0.01 µM was found to be 96%, the inhibition at 0.1 µM is 100% and the inhibition at 1 µM is 100%. The “fold less active against the maize enzyme than structure IV” value in assay [5] was about 100 fold. Moreover, in assay [5] (10 nM), the “inhibition (relative to controls)” value is 8%. Besides, the “inhibition (relative to controls)” value in assay [5] (100 nM) was 51%. The “inhibition (relative to controls)” value in assay [5] (1000 nM) was determined as 83%.

What is called koff is the rate constant with which the complex falls apart. The Kd is the concentration at which binding is half-saturated. The inhibition is the relative decrease from the control value, in per cent.
